This is an account of results in patent EP4722219A1 (Gan & Lee Pharmaceuticals Co., Ltd., priority 2023, dated 2024).

Holding throughout (type): cell-based
In assay [1] the target is T1, SMARCA2 (Homo sapiens, UniProt P51531). The assay can be described thus: SMARCA2 degradation in HeLa cells (Western blot). Further details: endogenous in cells. The following applies: 4 hours. In a few lines:
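HeLa cells treated 4 h with compound at final 80 nM or 1 nM (0.05% DMSO). SMARCA2 protein measured by Western blot with GAPDH loading control and band densitometry, giving percent degradation.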

In assay [2] the target is T2, SMARCA4 (Homo sapiens, UniProt P51532). The experiment in a line: SMARCA4 degradation in SW1573 cells (Western blot). Further details: endogenous in cells; host or cells: SW1573. The following applies: 24 hours, read-out: Degradation rate of SMARCA4 in SW1573 cells (%); for Dmax at 0.001 µM: 1 nM; for Dmax at 0.08 µM: 80 nM. On the procedure:
SW1573 cells were seeded at 2x10^5Cells/well in a 6-well plate. 2 mL of EMEM medium supplemented with 10% FBS was added to each well and was incubated overnight to allow cell attachment. […] The cells were returned to the incubator and incubated for another 24 hours.
(§1) After 24 hours, cells were harvested, the medium was aspirated, and the cells were rinsed once with 1 mL/well PBS. The PBS was aspirated, and 40 µL/well of RIPA lysis buffer containing protease inhibitors was added. After lysis and centrifugation, total protein extracts were obtained, and protein concentration in the extracts was determined by BCA assay. Protein electrophoresis was performed by SDS-PAGE, followed by constant voltage electrophoresis at 100 V for 60 minutes and the protein was then transferred to a PVDF membrane. The PVDF membrane was blocked in 5% skim milk powder for 1 hour at room temperature. […] After washing the membrane, secondary antibodies were added and incubated at room temperature for 1 hour (protected from the light). After washing, the membrane was exposed using an Odyssey luminometer. Grayscale analysis of bands was performed using Image Studio software.
(§2) The degradation rate (%) of SMARCA2/4 by the PROTAC compounds of the present invention in HeLa cells and SW1573 cells is shown in Table 10. Table 10 Degradation rate of SMARCA2/4 by PROTAC compounds of the present invention in HeLa cells and SW1573 cells (%)

Assay [3] has as its target T2, SMARCA4. The experiment in a line: SMARCA4 degradation in HeLa cells (Western blot). Further details: endogenous in cells. Conditions: 4 hours, read-out: Degradation rate of SMARCA4 in HeLa cells (%); for Dmax at 0.001 µM: 1 nM; for Dmax at 0.08 µM: 80 nM. The protocol:
HeLa cells were seeded at 1.2 x 10^5 cells/well in a 6-well plate. 2 mL of EMEM medium supplemented with 10% FBS was added to each well and the culture dish was incubated overnight to allow the cells to adhere. […] The cells were returned to the incubator and incubated for another 4 hours.
as §1, with “After 4 hours, cells” for “After 24 hours, cells”, “harvested, the culture medium was” for “harvested, the medium was”
as §2

The target of assay [4] is T1, SMARCA2. The experiment in a line: SMARCA2 degradation in SW1573 cells (Western blot). Further details: endogenous in cells; host or cells: SW1573. Conditions: 24 hours. The method in brief:
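Cells were treated for 24 h at 80 nM or 1 nM final compound (0.05% DMSO). SMARCA2 and SMARCA4 in RIPA lysates were detected by SDS-PAGE/Western blot with GAPDH as loading control. Band intensities were quantified by densitometry to give percentage degradation.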

T2 sequence (P51532 whole entry): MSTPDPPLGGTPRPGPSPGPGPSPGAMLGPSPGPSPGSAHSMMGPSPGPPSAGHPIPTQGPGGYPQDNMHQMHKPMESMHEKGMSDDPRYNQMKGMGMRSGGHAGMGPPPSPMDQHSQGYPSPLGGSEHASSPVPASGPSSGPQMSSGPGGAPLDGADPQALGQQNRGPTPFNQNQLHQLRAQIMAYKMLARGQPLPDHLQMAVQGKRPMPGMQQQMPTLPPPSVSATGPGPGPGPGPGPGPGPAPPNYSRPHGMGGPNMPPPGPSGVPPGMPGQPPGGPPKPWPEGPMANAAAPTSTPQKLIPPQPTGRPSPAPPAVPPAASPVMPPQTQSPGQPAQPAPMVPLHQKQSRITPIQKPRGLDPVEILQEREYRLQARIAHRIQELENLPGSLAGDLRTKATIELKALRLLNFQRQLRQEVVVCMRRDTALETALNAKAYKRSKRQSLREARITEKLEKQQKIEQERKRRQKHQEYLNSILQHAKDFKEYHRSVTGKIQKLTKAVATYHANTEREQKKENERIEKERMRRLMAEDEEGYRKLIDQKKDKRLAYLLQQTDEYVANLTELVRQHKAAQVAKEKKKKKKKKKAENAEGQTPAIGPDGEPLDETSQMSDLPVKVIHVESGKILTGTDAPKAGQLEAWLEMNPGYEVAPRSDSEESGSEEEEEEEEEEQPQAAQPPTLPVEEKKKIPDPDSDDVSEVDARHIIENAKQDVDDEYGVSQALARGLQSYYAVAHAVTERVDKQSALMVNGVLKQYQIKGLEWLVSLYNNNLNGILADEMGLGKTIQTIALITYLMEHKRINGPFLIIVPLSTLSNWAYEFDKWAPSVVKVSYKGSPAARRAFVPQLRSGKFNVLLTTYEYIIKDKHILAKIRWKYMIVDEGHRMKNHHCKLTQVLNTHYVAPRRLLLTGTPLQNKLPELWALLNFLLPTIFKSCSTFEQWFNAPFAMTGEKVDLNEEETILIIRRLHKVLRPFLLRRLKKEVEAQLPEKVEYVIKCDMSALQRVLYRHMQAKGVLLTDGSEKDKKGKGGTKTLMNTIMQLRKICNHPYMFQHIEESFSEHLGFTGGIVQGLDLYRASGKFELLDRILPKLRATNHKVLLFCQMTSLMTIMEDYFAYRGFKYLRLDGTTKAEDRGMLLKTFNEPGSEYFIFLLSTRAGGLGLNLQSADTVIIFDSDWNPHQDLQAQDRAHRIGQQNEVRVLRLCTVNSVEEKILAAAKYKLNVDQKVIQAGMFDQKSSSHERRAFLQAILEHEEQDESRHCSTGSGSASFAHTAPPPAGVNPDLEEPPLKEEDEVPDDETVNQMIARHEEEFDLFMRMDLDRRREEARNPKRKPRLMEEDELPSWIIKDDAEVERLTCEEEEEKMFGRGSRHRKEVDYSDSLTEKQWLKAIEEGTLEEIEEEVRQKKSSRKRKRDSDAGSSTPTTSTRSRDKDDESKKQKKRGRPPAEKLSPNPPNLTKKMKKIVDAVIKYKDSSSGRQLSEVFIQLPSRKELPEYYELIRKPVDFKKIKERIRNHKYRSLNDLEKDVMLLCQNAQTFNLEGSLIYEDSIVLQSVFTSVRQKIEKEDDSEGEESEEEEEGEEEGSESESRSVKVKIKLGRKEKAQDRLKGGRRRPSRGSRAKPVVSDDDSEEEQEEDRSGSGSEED
T1 sequence (P51531 whole entry): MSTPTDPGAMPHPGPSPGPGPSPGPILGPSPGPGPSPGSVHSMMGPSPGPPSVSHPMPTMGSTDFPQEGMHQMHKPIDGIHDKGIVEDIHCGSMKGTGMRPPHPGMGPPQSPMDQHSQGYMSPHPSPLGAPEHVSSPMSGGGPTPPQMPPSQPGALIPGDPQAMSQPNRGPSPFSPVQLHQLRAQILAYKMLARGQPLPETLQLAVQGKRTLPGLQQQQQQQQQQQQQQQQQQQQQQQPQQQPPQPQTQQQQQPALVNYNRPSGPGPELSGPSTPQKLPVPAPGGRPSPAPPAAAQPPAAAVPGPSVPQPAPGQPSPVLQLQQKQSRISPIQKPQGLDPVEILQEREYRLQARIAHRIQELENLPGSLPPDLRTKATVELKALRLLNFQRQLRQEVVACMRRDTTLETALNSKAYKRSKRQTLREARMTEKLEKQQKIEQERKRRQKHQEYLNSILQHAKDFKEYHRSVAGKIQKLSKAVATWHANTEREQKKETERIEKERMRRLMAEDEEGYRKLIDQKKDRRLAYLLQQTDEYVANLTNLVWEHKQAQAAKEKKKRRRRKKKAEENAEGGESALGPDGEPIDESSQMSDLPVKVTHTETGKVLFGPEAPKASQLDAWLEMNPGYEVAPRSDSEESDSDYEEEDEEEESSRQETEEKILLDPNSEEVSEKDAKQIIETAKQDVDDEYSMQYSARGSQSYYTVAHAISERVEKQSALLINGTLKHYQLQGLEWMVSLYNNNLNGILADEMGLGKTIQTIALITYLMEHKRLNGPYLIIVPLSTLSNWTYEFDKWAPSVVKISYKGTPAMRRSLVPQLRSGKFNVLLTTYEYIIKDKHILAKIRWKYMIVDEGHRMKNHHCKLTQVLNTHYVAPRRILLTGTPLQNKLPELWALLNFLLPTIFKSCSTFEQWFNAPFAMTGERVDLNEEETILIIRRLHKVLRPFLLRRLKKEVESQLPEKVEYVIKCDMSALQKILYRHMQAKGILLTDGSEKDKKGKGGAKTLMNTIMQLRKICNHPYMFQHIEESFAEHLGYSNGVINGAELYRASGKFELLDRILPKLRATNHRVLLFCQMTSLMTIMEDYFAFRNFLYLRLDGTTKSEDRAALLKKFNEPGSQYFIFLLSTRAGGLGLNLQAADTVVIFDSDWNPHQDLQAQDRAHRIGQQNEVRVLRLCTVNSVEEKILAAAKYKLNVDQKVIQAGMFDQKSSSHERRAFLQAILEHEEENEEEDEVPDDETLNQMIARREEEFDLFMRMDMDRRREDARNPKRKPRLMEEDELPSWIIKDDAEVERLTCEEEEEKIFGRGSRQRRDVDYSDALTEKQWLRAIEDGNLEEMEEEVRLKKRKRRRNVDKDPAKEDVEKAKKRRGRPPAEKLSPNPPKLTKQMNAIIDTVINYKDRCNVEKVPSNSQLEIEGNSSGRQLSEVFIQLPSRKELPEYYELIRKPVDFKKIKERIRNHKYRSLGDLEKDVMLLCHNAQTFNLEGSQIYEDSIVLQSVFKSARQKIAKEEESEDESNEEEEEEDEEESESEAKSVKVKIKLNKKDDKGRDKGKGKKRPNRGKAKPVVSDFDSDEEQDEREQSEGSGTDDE

In the case of `Cn1c(=O)n(C2CCC(=O)NC2=O)c2cc3c(cc21)C1(CCN(C(=O)[C@H]2CC[C@H](Cn4cc(-c5cc(-c6ccccc6O)nnc5N)cn4)CC2)CC1)CO3` (some centres unmarked) [SM-P-28, 3-(1'-((1r,4r)-4-((4-(3-amino-6-(2-hydroxyphenyl)pyridazin-4-yl)-1H-pyrazol-1-yl)methyl)cyclohexane-1-carbonyl)-1-methyl-2-oxo-1,2-dihydro-3H,6H-spiro[benzofuro[5,6-d]imidazole-7,4'-piperidin]-3-yl)piperidine-2,6-dione], the “Degradation rate of SMARCA2 in HeLa cells (%)” value in assay [1] (1 nM) is given as 17%; in assay [1] (80 nM), 98%. Besides, the Dmax at 0.001 µM in assay [2] came to 11%; in assay [3], 38%. For the same molecule, the Dmax at 0.08 µM in assay [2] is 95%; in assay [3], 99%. In addition, the entries for the “Degradation rate of SMARCA2 in SW1573 cells (%)” value in assay [4] (1 nM) and in assay [4] (80 nM) were 14% and 77%, respectively.

In the case of `Nc1nnc(-c2ccccc2O)cc1C#CC1CCC2(CC1)CC(N1CCC3(CC1)CCC1(CC3)COc3c1ccc1c3CN(C3CCC(=O)NC3=O)C1=O)C2` (centres unmarked) [SM-P-2], the results for the “Degradation rate of SMARCA2 in HeLa cells (%)” value in assay [1] (1 nM) and in assay [1] (80 nM) were 95% and 98%, respectively. The Dmax at 0.001 µM in assay [2] was determined as 94%; in assay [3], 92%. In addition, the Dmax at 0.08 µM in assay [2] was 100%; in assay [3] it was 99%. The figures for the “Degradation rate of SMARCA2 in SW1573 cells (%)” value in assay [4] (1 nM) and in assay [4] (80 nM) were 98% and 100%, respectively.

As to `Cn1c(=O)n(C2CCC(=O)NC2=O)c2ccc3c(c21)OCC31CCN(C(=O)[C@H]2CC[C@H](Cn3cc(-c4cc(-c5ccccc5O)nnc4N)cn3)CC2)CC1` (some centres unmarked) [SM-P-27, 3-(1'-((1r,4r)-4-((4-(3-amino-6-(2-hydroxyphenyl)pyridazin-4-yl)-1H-pyrazol-1-yl)methyl)cyclohexane-1-carbonyl)-1-methyl-2-oxo-1,2-dihvdro-3H,7H-spiro[benzofuro[6,7-d]imidazole-6,4'-piperidin]-3-yl)piperidine-2,6-dione], the “Degradation rate of SMARCA2 in HeLa cells (%)” value in assay [1] (1 nM) was determined as 51%; in assay [1] (80 nM) it was 90%. Also, the Dmax at 0.001 µM in assay [2] stood at 40%; in assay [3], 22%. The Dmax at 0.08 µM in assay [2] was found to be 82%; in assay [3] it was 79%. Moreover, the “Degradation rate of SMARCA2 in SW1573 cells (%)” value came out at 59% in assay [4] (1 nM) and 88% in assay [4] (80 nM).

For `Nc1nnc(-c2ccccc2O)cc1C#CC1CCC2(CC1)CC(N1CCC3(CCc4cc(F)c(C(=O)N[C@H]5CCC(=O)NC5=O)cc4O3)CC1)C2` (some centres unmarked) [SM-P-12], the figures for the “Degradation rate of SMARCA2 in HeLa cells (%)” value in assay [1] (1 nM) and in assay [1] (80 nM) were 6% and 14%, respectively. The Dmax at 0.001 µM in assay [2] was determined as 28%; in assay [3], 17%. The Dmax at 0.08 µM turned out to be 5% in assay [2] and 24% in assay [3]. Further, the “Degradation rate of SMARCA2 in SW1573 cells (%)” value in assay [4] (1 nM) and in assay [4] (80 nM) was 32% in each case.
